The text below walks through data of BindingDB's records for doi:10.3109/14756366.2011.649267 (South Dakota State University, 2013).

In this assay the target is T1, Glutaredoxin-1 (Human, UniProt P35754).
T1 sequence (P35754 whole entry): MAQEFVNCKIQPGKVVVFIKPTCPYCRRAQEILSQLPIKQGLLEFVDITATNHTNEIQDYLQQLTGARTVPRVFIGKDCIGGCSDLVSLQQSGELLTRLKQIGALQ
As to the kind of experiment: GRX Assay. As to conditions: pH 8; 25 °C. As for the experimental part:
Human GRX-1 (0.25 unit/mL) was incubated at 25 °C with increasing concentrations of 2-AAPA (25, 50, 100, and 200 μM) and BSA (1 mg/mL). Aliquots were withdrawn for determination of GRX activity at 3, 10, and 20 min. Control incubations without 2-AAPA were conducted in parallel. The aliquots were added to the GRX assay solution, and enzyme activity was determined from a coupled reaction with GR based on a literature reported procedure with minor modification. In this assay, a mixed disulfide between GSH and the mercaptoethanol moiety derived from 2-hydroxyethyldisulfide (HED) served as the substrate for GRX; briefly GSH (10 mM) and HED (7 mM) were premixed in water for 5 min before transferring onto ice. The final GRXassay solution contained GSH (1 mM), HED (0.7mM), GR (0.02 units/mL), NADPH (0.2 mM), and bovine serum albumin (BSA, 1 mg/mL) in Trisbuffer (pH 8, 0.1 M). Theactivity was determined by monitoring the disappearance of NADPH spectrophotometrically at λ = 340 nm [Holmgren et al., Meth. Enzymol., 252:283-292].

Regarding `CC(=O)NC(CSC(=S)Nc1ccc(NC(=S)SCC(NC(C)=O)C(=O)O)cc1)C(=O)O` (stereo unspecified) [2-AAPA], the inhibition constant Ki amounted to 91.3 µM.

By Ki is commonly meant a measure of affinity in units of concentration, obtained from inhibition or displacement. Read a low Ki as higher affinity.
